The values that follow come from DBAASP.

The structures appear in SMILES notation. Values after ≈ are worked out from the molar mass of the structure shown. Values joined by “and” are separate entries in the source; they are usually repeats but may differ in a detail not shown here. Equal entries are not always repeated. Bounds are passed on as bounds.

As a reminder, the MIC is the least concentration at which growth counts as inhibited. A lower MIC goes with inhibition by little substance.

Among the test systems are Bacteroides fragilis; Clostridium septicum; Cutibacterium acnes; Fusobacterium nucleatum; Lactococcus garvieae; Streptococcus iniae; Vibrio alginolyticus; Vibrio harveyi; Vibrio parahaemolyticus.
Common to all, as to assay: ≥ marks a high value that may be exact or a test limit, other limits are often not marked, values filed in µg/mL are converted to µM
Experiment [1] relates to Bacteroides fragilis ATCC 25285.
Experiment [2] relates to Candida albicans ATCC 900280.
The subject of experiment [3] is Candida albicans ATCC 90028.
For experiment [4], the system named is Clostridium perfringens ATCC 10543.
For experiment [5], the system named is Clostridium tertium ATCC 19465.
The subject of experiment [6] is Cutibacterium acnes ATCC 11828.
Experiment [7] relates to Enterobacter cloacae HNTCC 53001.
The test system of experiment [8] is Enterococcus faecalis ATCC 29212.
For experiment [9], the system named is Escherichia coli ATCC 25726.
The subject of experiment [10] is Escherichia coli ATCC 25922.
The subject of experiment [11] is Fusobacterium varium ATCC 27725.
Experiment [12] concerns Klebsiella pneumoniae KK3 9904.
Experiment [13] concerns Peptoniphilus asaccharolyticus ATCC 29743.
Experiment [14] deals with Peptostreptococcus anaerobius.
Experiment [15] relates to Prevotella melaninogenica.
Experiment [16] deals with Proteus mirabilis ATCC 25933.
Experiment [17] relates to Pseudomonas aeruginosa ATCC 27853.
In experiment [18] the test system is Salmonella enterica subsp. enterica serovar Typhimurium LT2.
The subject of experiment [19] is Staphylococcus aureus ATCC 25923.
The test system of experiment [20] is Staphylococcus aureus NCTC 8325.
The subject of experiment [21] is Staphylococcus aureus T7/5.
The subject of experiment [22] is Staphylococcus epidermidis RP62A.
The test system of experiment [23] is Batrachochytrium dendrobatidis.
Experiment [24] concerns Enterobacter cloacae BCRC 10401.
For experiment [25], the system named is Escherichia coli BCRC 10675.
In experiment [26] the test system is Klebsiella aerogenes BCRC 10370.
In experiment [27] the test system is Klebsiella oxytoca BCRC 13985.
Experiment [28] has as its system Listeria monocytogenes BCRC 14845.
Experiment [29] has as its system Pseudomonas aeruginosa BCRC 10944.
For experiment [30], the system named is Staphylococcus aureus BCRC 10780.
Experiment [31] has as its system Staphylococcus aureus BCRC 10781.
The test system of experiment [32] is Staphylococcus xylosus BCRC 12930.
Experiment [33] deals with Streptococcus equinus BCRC 14729.
In experiment [34] the test system is Vibrio alginolyticus BCRC 12829.
In experiment [35] the test system is Vibrio anguillarum serotype O1.
The subject of experiment [36] is Vibrio parahaemolyticus BCRC 10806.
Experiment [37] concerns Yersinia enterocolitica BCRC 13999.

With `CC[C@H](C)[C@H](NC(=O)[C@H](CCCCN)NC(=O)[C@H](CCCCN)NC(=O)[C@H](C)NC(=O)[C@H](CC(C)C)NC(=O)[C@H](CC(N)=O)NC(=O)[C@@H](NC(=O)[C@H](CC(C)C)NC(=O)[C@@H](NC(=O)CNC(=O)[C@H](CC(C)C)NC(=O)[C@H](Cc1ccccc1)NC(=O)[C@@H](N)Cc1cnc[nH]1)[C@@H](C)O)C(C)C)C(=O)N[C@@H](CC(C)C)C(N)=O` [HFLGTLVNLAKKIL], the MIC in experiment [1] is at least 50 µM; against Bacteroides fragilis, at least 50 µM; in [2], 16 µM (≈ 25.1 µg/mL); in [3], ≥ 40 µM and 25 µM; in experiment [4], 6 µM (≈ 9.4 µg/mL); against Clostridium septicum it was 12.5 µM (≈ 19.6 µg/mL). In addition, the MIC in experiment [5] was 3 µM (≈ 4.7 µg/mL); in [6], 6 µM (≈ 9.4 µg/mL); in the experiment with Cutibacterium acnes, 6 µM (≈ 9.4 µg/mL); in experiment [7], at least 32 µM; in experiment [8], 16 µM (≈ 25.1 µg/mL); in [9], at least 32 µM. For the same molecule, the MIC in experiment [10] was 20 µM (≈ 31.3 µg/mL); against Fusobacterium nucleatum, 25 µM (≈ 39.1 µg/mL); in experiment [11] it was at least 50 µM; in experiment [12], at least 32 µM; in [13], 25 µM (≈ 39.1 µg/mL); in [14], 12.5 µM (≈ 19.6 µg/mL). Besides, the MIC in experiment [15] was 12.5 µM (≈ 19.6 µg/mL); in experiment [16], at least 128 µM; in experiment [17], 32 µM (≈ 50.1 µg/mL); in experiment [18], at least 32 µM; in experiment [19] it was 8 µM (≈ 12.5 µg/mL); in experiment [20], 6.32 µM (≈ 9.9 µg/mL). The MIC in experiment [21] was 10 µM (≈ 15.7 µg/mL); in experiment [22], 4 µM (≈ 6.26 µg/mL).
The molecule `CC[C@H](C)[C@H](NC(=O)CN)C(=O)N[C@@H](CCSC)C(=O)N[C@@H](CC(=O)O)C(=O)N[C@@H](CO)C(=O)N[C@H](C(=O)N[C@@H](CCCCN)C(=O)NCC(=O)N[C@@H](C)C(=O)N[C@@H](C)C(=O)N[C@@H](CCCCN)C(=O)N[C@@H](CCC(=O)O)C(=O)N[C@H](C(=O)N[C@@H](C)C(=O)NCC(=O)N[C@@H](Cc1cnc[nH]1)C(=O)N[C@@H](CC(C)C)C(=O)N[C@@H](CC(C)C)C(=O)N[C@@H](CC(=O)O)C(=O)N[C@@H](CC(N)=O)C(=O)N[C@@H](CC(C)C)C(=O)N[C@@H](CCCCN)C(=O)N[C@H]1CSSC[C@@H](C(=O)O)NC(=O)CNC(=O)[C@H]([C@@H](C)O)NC(=O)[C@H]([C@@H](C)CC)NC(=O)[C@H](CCCCN)NC1=O)[C@@H](C)CC)[C@@H](C)CC` [GIMDSIKGAAKEIAGHLLDNLKCKITGC] yielded an MIC in [23] of at least 50 µM.
In the case of `CC[C@H](C)[C@H](NC(=O)[C@H](CCCCN)NC(=O)[C@H](CCCCN)NC(=O)[C@H](C)NC(=O)[C@H](Cc1ccccc1)NC(=O)[C@@H](NC(=O)[C@H](C)NC(=O)[C@H](CC(C)C)NC(=O)[C@H](CCCCN)NC(=O)[C@H](CCCCN)NC(=O)[C@H](C)NC(=O)[C@H](C)NC(=O)[C@H](CC(N)=O)NC(=O)[C@H](C)NC(=O)CN)[C@@H](C)O)C(=O)N[C@@H](Cc1ccccc1)C(=O)N[C@H](C(=O)N[C@@H](C)C(=O)N[C@@H](Cc1ccc(O)cc1)C(=O)N[C@@H](Cc1c[nH]c2ccccc12)C(=O)O)[C@@H](C)O` [GANAAKKLATFAKKIFTAYW], the MIC was 7.27 µM in [24]; 14.5 µM in experiment [25]; 14.5 µM in experiment [26]; at least 58.2 µM in [27]; at least 116 µM against Lactococcus garvieae; at least 58.2 µM in experiment [28]. In addition, the MIC in experiment [29] is 29.1 µM; in [30], 29.1 µM; in experiment [31], 29.1 µM; in [32] it was 29.1 µM; in experiment [33] it was at least 58.2 µM; in the experiment on Streptococcus iniae it was at least 58.2 µM. Besides, the MIC in experiment [34] is at least 58.2 µM; against Vibrio alginolyticus, 7.27 µM; in [35], 7.27 µM; against Vibrio harveyi, 7.27 µM; in experiment [36] it was at least 58.2 µM; against Vibrio parahaemolyticus, 7.27 µM. The molecule also gave an MIC in experiment [37] of at least 116 µM.
